From patent US10570122B2, “Compounds with anti-tumoral activity” (AB Science, priority 2015, dated 2020)
pIC50: −log10 of the molar value.

How the values were obtained:
[1] = tested on: HL60; assay: CellTiter-Blue cell-based survival/proliferation assay, HL60; settings: Homo sapiens, HL-60, Leukemia cell line HL60, 48 h, read-out: Anti-tumoral activity (measured IC50) HL60
Outline: (§1)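 Compounds, diluted tenfold serially over 0–10 μM, are applied to 1·10^4 seeded cells per well for 48 h at 37 °C. Resorufin formed during a further 4 h with CellTiter-Blue is detected by fluorescence emission at 590 nm.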

[2] = tested on: human kinases (456 kinases); assay: KINOMEscan in vitro kinase profiling; format: binding
Protocol: An in vitro kinase profiling was conducted in order to evidence the absence of protein kinase inhibition by the compounds of the invention.
DiscoveRx (Ambit Biosciences) has developed a high-throughput system (KINOMEscan™) for screening of compounds against large numbers of human kinases (456 kinases).
The compounds of the invention were screened at the concentration of 1 μM, and results for primary screen binding interactions were reported as percent control (% Ctrl), where lower numbers indicate stronger hits. DMSO is used as a negative control (100% Ctrl) while a high affinity compound is used as a positive control (0% Ctrl). % Ctrl is calculated as follow:
[formula] Selectivity Score or S-score is a quantitative measure of compound selectivity. It is calculated by dividing the number of kinases that compounds bind to by the total number of distinct kinases tested, excluding mutant variants. S(10)=(number of kinases with % Ctrl<10)/(number of kinases tested), S(1)=(number of kinases with % Ctrl<1)/(number of kinases tested).

[3] = tested on: OPM2; assay: CellTiter-Blue cell-based survival/proliferation assay, OPM2; settings: Homo sapiens, OPM-2, Myeloma cell line OPM2, 48 h, read-out: Anti-tumoral activity (measured IC50) OPM2
Outline: as §1

[4] = tested on: SW579; assay: CellTiter-Blue cell-based survival/proliferation assay, SW579; settings: Homo sapiens; SW579 head & neck tumor cell line, 48 h
Outline: as §1

[5] = tested on: A498; assay: CellTiter-Blue cell-based survival/proliferation assay, A498; settings: Homo sapiens; A498 kidney tumor cell line, 48 h
Outline: as §1

[6] = tested on: DLD1; assay: CellTiter-Blue cell-based survival/proliferation assay, DLD1; settings: Homo sapiens, DLD-1; DLD_1 colorectal tumor cell line, 48 h
Outline: as §1

[7] = tested on: BXPC3; assay: CellTiter-Blue cell-based survival/proliferation assay, BXPC3; settings: Homo sapiens, BXPC-3; BXPC3 pancreas tumor cell line, 48 h
Outline: as §1

[8] = tested on: HEP2; assay: CellTiter-Blue cell-based survival/proliferation assay, HEP2; settings: Homo sapiens, HEp-2; HEP2 head & neck tumor cell line, 48 h
Outline: as §1

[9] = tested on: MDAMB231; assay: CellTiter-Blue cell-based survival/proliferation assay, MDAMB231; settings: Homo sapiens, MDA-MB-231; MDAMB231 breast tumor cell line, 48 h
Outline: as §1

[10] = tested on: HCT116; assay: CellTiter-Blue cell-based survival/proliferation assay, HCT116; settings: Homo sapiens, HCT-116; HCT116 colorectal tumor cell line, 48 h
Outline: as §1

[11] = tested on: CLS354; assay: CellTiter-Blue cell-based survival/proliferation assay, CLS354; settings: Homo sapiens, CLS-354; CLS354_4 head & neck tumor cell line, 48 h
Outline: as §1

[12] = tested on: TOV112D; assay: CellTiter-Blue cell-based survival/proliferation assay, TOV112D; settings: Homo sapiens; TOV112D ovary tumor cell line, 48 h
Outline: as §1

[13] = tested on: HGC27; assay: CellTiter-Blue cell-based survival/proliferation assay, HGC27; settings: Homo sapiens, HGC-27; HGC27 stomach tumor cell line, 48 h
Outline: as §1

[14] = tested on: KARPAS299; assay: CellTiter-Blue cell-based survival/proliferation assay, KARPAS299; settings: Homo sapiens, KARPAS-299, Lymphoma cell line KARPAS299, 48 h, read-out: Anti-tumoral activity (measured IC50) KARPAS299
Outline: as §1

[15] = tested on: panel of about 34 human tumor cell lines; assay: Cell-based proliferation screening on panel of tumor cell lines; settings: solid tumor cell line, cell line unknown, 48 h, read-out: IC50, solid tumor cell line of column 6 (last section of Table 3)
Outline: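 CellTiter-Blue survival assay with 1·10^4 cells/well, each line treated 48 h at 37° C with 1/10 serial dilutions from 0 to 10 μM. Resorufin formed during a 4 h reagent incubation is read by fluorescence at 590 nm. A cell-free blank serves as background.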

[16] = tested on: H1299; assay: CellTiter-Blue cell-based survival/proliferation assay, H1299; settings: Homo sapiens, NCI-H1299; H1299 lung tumor cell line, 48 h
Outline: as §1

[17] = tested on: DU145; assay: CellTiter-Blue cell-based survival/proliferation assay, DU145; settings: Homo sapiens, DU-145; DU145 prostate tumor cell line, 48 h
Outline: as §1

[18] = tested on: HEPG2; assay: CellTiter-Blue cell-based survival/proliferation assay, HEPG2; settings: Homo sapiens; HEPG2 liver tumor cell line, 48 h
Outline: as §1

[19] = tested on: BT20; assay: CellTiter-Blue cell-based survival/proliferation assay, BT20; settings: Homo sapiens, BT-20; BT20 breast tumor cell line, 48 h
Outline: as §1

[20] = tested on: PANC1; assay: CellTiter-Blue cell-based survival/proliferation assay, PANC1; settings: Homo sapiens, PANC-1; PANC_1 pancreas tumor cell line, 48 h
Outline: as §1

[21] = tested on: CALU6; assay: CellTiter-Blue cell-based survival/proliferation assay, CALU6; settings: Homo sapiens, Calu-6; CALU6 lung tumor cell line, 48 h
Outline: as §1

[22] = tested on: MESSA; assay: CellTiter-Blue cell-based survival/proliferation assay, MESSA; settings: Homo sapiens, MES-SA; MESSA ovary tumor cell line, 48 h
Outline: as §1

[23] = tested on: PLCPRF5; assay: CellTiter-Blue cell-based survival/proliferation assay, PLCPRF5; settings: Homo sapiens, PLC-PRF-5; PLC_PRF5 liver tumor cell line, 48 h
Outline: as §1

[24] = tested on: AGS; assay: CellTiter-Blue cell-based survival/proliferation assay, AGS; settings: Homo sapiens; AGS stomach tumor cell line, 48 h
Outline: as §1

[25] = tested on: A549; assay: CellTiter-Blue cell-based survival/proliferation assay, A549; settings: Homo sapiens; A549 lung tumor cell line, 48 h
Outline: as §1

[26] = tested on: HUT78; assay: CellTiter-Blue cell-based survival/proliferation assay, HUT78; settings: Homo sapiens, Lymphoma cell line HUT78, 48 h, read-out: Anti-tumoral activity (measured IC50) HUT78
Outline: as §1

[27] = tested on: ACHN; assay: CellTiter-Blue cell-based survival/proliferation assay, ACHN; settings: Homo sapiens; ACHN kidney tumor cell line, 48 h
Outline: as §1

[28] = tested on: REC1; assay: CellTiter-Blue cell-based survival/proliferation assay, REC1; settings: Homo sapiens, Lymphoma cell line REC1, 48 h, read-out: Anti-tumoral activity (measured IC50) REC1
Outline: as §1

[29] = tested on: PC3; assay: CellTiter-Blue cell-based survival/proliferation assay, PC3; settings: Homo sapiens, PC-3; PC3 prostate tumor cell line, 48 h
Outline: as §1

Structure (SMILES): CCOCc1ccc(C)c(Nc2ncc(-c3ccc(-n4cccn4)cc3)o2)c1 [Example 033, (5-Ethoxymethyl-2-methyl-phenyl)-[5-(4-pyrazol-1-yl-phenyl)-oxazol-2-yl]-amine]
- pIC50 [1]: ≥ 7.00
- Interaction with the 456 kinases tested ([2]; screened at 1 μM): do not efficiently interact
- Number of hits/number of kinases, S1 ([2]; tested at 1 μM, S(1): kinases with % Ctrl<1): 0/456
- S-score, S1 ([2]; tested at 1 μM, S(1)=(number of kinases with % Ctrl<1)/(number of kinases tested)): 0.000
- Number of hits/number of kinases, S10 ([2]; tested at 1 μM, S(10): kinases with % Ctrl<10): 1/456
- S-score, S10 ([2]; tested at 1 μM, S(10)=(number of kinases with % Ctrl<10)/(number of kinases tested)): 0.002
- Kinase targets, S10 ([2]; tested at 1 μM, kinases with % Ctrl<10): CDKL3
- pIC50 [3]: ≥ 7.00
- pIC50 [4]: < 6.00
- pIC50 [5]: 6.30 to 7.00
- pIC50 [6]: ≥ 7.00
- pIC50 [7]: 6.30 to 7.00
- pIC50 [8]: ≥ 7.00
- pIC50 [9]: < 6.00
- pIC50 [10]: 6.30 to 7.00
- pIC50 [11]: ≥ 7.00
- pIC50 [12]: ≥ 7.00
- pIC50 [13]: ≥ 7.00
- pIC50 [14]: ≥ 7.00
- pIC50 [15]: ≥ 7.00
- pIC50 [16]: < 6.00
- pIC50 [17]: < 6.00
- pIC50 [18]: 6.00 to 6.30
- pIC50 [19]: 6.30 to 7.00
- pIC50 [20]: < 6.00
- pIC50 [21]: ≥ 7.00
- pIC50 [22]: 6.30 to 7.00
- pIC50 [23]: 6.00 to 6.30
- pIC50 [24]: ≥ 7.00
- pIC50 [25]: < 6.00
- pIC50 [26]: ≥ 7.00
- pIC50 [27]: ≥ 7.00
- pIC50 [28]: ≥ 7.00
- pIC50 [29]: ≥ 7.00

Structure (SMILES): CCOCc1ccc(C)c(Nc2ncc(-c3ccc(-n4ccccc4=O)cc3)o2)c1 [Example 049, 1-{4-[2-(5-Ethoxymethyl-(2-methyl-phenylamino))-oxazol-5-yl]-phenyl}-1H-pyridin-2-one]
- pIC50 [1]: < 6.00
- pIC50 [3]: < 6.00
- pIC50 [4]: < 6.00
- pIC50 [5]: < 6.00
- pIC50 [6]: < 6.00
- pIC50 [7]: < 6.00
- pIC50 [8]: < 6.00
- pIC50 [9]: < 6.00
- pIC50 [10]: < 6.00
- pIC50 [11]: < 6.00
- pIC50 [12]: < 6.00
- pIC50 [13]: < 6.00
- pIC50 [14]: < 6.00
- pIC50 [15]: < 6.00
- pIC50 [16]: < 6.00
- pIC50 [17]: < 6.00
- pIC50 [18]: < 6.00
- pIC50 [19]: < 6.00
- pIC50 [20]: < 6.00
- pIC50 [21]: < 6.00
- pIC50 [22]: < 6.00
- pIC50 [23]: < 6.00
- pIC50 [24]: < 6.00
- pIC50 [25]: < 6.00
- pIC50 [26]: < 6.00
- pIC50 [27]: < 6.00
- pIC50 [28]: < 6.00
- pIC50 [29]: < 6.00

Structure (SMILES): CCOCc1ccc(C)c(Nc2ncc(-c3ccc(-c4ccc[nH]c4=O)cc3)o2)c1 [Example 050, 3-{4-[2-(5-Ethoxymethyl-(2-methyl-phenylamino))-oxazol-5-yl]-phenyl}-1H-pyridin-2-one]
- pIC50 [1]: 6.00 to 6.30
- pIC50 [3]: 6.00 to 6.30
- pIC50 [4]: < 6.00
- pIC50 [5]: < 6.00
- pIC50 [6]: < 6.00
- pIC50 [7]: < 6.00
- pIC50 [8]: < 6.00
- pIC50 [9]: < 6.00
- pIC50 [10]: < 6.00
- pIC50 [11]: < 6.00
- pIC50 [12]: < 6.00
- pIC50 [13]: < 6.00
- pIC50 [14]: 6.30 to 7.00
- pIC50 [15]: 6.00 to 6.30
- pIC50 [16]: < 6.00
- pIC50 [17]: < 6.00
- pIC50 [18]: < 6.00
- pIC50 [19]: < 6.00
- pIC50 [20]: < 6.00
- pIC50 [21]: < 6.00
- pIC50 [22]: < 6.00
- pIC50 [23]: < 6.00
- pIC50 [24]: < 6.00
- pIC50 [25]: < 6.00
- pIC50 [26]: < 6.00
- pIC50 [27]: < 6.00
- pIC50 [28]: 6.00 to 6.30
- pIC50 [29]: < 6.00
